# Results as given in ChEMBL document CHEMBL1131627, “Noncalcemic, antiproliferative, transcriptionally active, 24-fluorinated hybrid analogues of the hormone 1alpha, 25-dihydroxyvitamin D3. Synthesis and preliminary biological evaluation” (J Med Chem, 1998).
# Target: T1, Vitamin D3 receptor (Rattus norvegicus) (UniProt P13053)
# T1 sequence (whole entry): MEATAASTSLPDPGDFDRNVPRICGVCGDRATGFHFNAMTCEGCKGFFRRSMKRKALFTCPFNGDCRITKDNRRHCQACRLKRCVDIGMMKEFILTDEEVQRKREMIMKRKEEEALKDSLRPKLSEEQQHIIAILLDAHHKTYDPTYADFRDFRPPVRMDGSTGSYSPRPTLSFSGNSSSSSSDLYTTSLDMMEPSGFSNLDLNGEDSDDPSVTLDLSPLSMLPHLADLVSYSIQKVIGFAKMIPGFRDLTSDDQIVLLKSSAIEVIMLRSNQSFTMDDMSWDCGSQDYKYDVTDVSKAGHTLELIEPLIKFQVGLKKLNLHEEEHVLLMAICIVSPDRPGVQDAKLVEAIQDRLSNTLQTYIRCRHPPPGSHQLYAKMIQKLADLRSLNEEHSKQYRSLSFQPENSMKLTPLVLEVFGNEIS
# Test: Vitamin D receptor mediated transcriptional activity in rat osteosarcoma ROS 17/2.8 cells
row,Structure (SMILES),ED50 [nM]
1,C=C1/C(=C\C=C2/CCC[C@]3(C)C([C@H](C)CCC(F)(F)C(O)(CC)CC)=CC[C@@H]23)C[C@H](O)C[C@H]1CO,0.05
2,C=C1/C(=C\C=C2/CCC[C@]3(C)C([C@H](C)CCC(F)(F)C(C)(C)O)=CC[C@@H]23)C[C@H](O)C[C@H]1CO,0.2
3,C=C1/C(=C\C=C2/CCC[C@]3(C)[C@@H]([C@H](C)CCCC(C)(C)O)CC[C@@H]23)C[C@@H](O)C[C@@H]1O,0.3
